#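 Test compounds were applied to cells in 96-well plates for 48 hours at 5 doses. Here, GI50 denotes the concentration required for 50% inhibition of growth.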 Activity calls are given as the source filed them. Cut-off read from the data, not from the text of the source: active = GI50 up to about 1.1 µM and inactive = higher.
# How the values were obtained:
# Test in all cases: growth of human tumour cells (NCI), 48 h
# 786-0 = test system: 786-0
# A498 = test system: A498
# A549 = test system: A549
# ACHN = test system: ACHN
# CAKI-1 = test system: CAKI-1
# CCRF-CEM = test system: CCRF-CEM
# COLO 205 = test system: COLO 205
# DMS-114 = test system: DMS-114
# DMS-273 = test system: DMS-273
# EKVX = test system: EKVX
# HCC 2998 = test system: HCC 2998
# HCT-116 = test system: HCT-116
# HCT-15 = test system: HCT-15
# HL-60 = test system: HL-60
# HOP-62 = test system: HOP-62
# HOP-92 = test system: HOP-92
# HT-29 = test system: HT-29
# IGROV-1 = test system: IGROV-1
# K562 = test system: K562
# KM-20L2 = test system: KM-20L2
# KM12 = test system: KM12
# LOX IMVI = test system: LOX IMVI
# LXFL 529 = test system: LXFL 529
# M19-MEL = test system: M19-MEL
# MOLT-4 = test system: MOLT-4
# NCI-H226 = test system: NCI-H226
# NCI-H23 = test system: NCI-H23
# NCI-H460 = test system: NCI-H460
# NCI-H522 = test system: NCI-H522
# OVCAR-3 = test system: OVCAR-3
# OVCAR-4 = test system: OVCAR-4
# OVCAR-8 = test system: OVCAR-8
# RPMI-8226 = test system: RPMI-8226
# RXF 393 = test system: RXF 393
# SF-268 = test system: SF-268
# SF-295 = test system: SF-295
# SF-539 = test system: SF-539
# SK-MEL-28 = test system: SK-MEL-28
# SK-MEL-2 = test system: SK-MEL-2
# SK-MEL-5 = test system: SK-MEL-5
# SK-OV-3 = test system: SK-OV-3
# SN12C = test system: SN12C
# SNB-19 = test system: SNB-19
# SNB-75 = test system: SNB-75
# SNB-78 = test system: SNB-78
# SR = test system: SR
# SW-620 = test system: SW-620
# TK-10 = test system: TK-10
# U-251 = test system: U-251
# UACC-257 = test system: UACC-257
# UACC-62 = test system: UACC-62
# UO-31 = test system: UO-31
# DLD-1 = test system: DLD-1
# M14 = test system: M14
# Malme-3M = test system: Malme-3M
# OVCAR-5 = test system: OVCAR-5
# MCF7 = test system: MCF7
# NCI/ADR-RES = test system: NCI/ADR-RES
# XF498 = test system: XF498
smiles,measurement,setting,value
CC1(SCC(N)C(=O)O)CC(=O)NC1=O (centres undefined),GI50,786-0,> 100 µM (inactive)
same,GI50,A498,0.42 µM (active)
same,GI50,A549,> 100 µM (inactive)
same,GI50,ACHN,62.4 µM (inactive)
same,GI50,CAKI-1,> 100 µM (inactive)
same,GI50,CCRF-CEM,> 100 µM (inactive)
same,GI50,COLO 205,> 100 µM (inactive)
same,GI50,DMS-114,> 100 µM (inactive)
same,GI50,DMS-273,> 100 µM (inactive)
same,GI50,EKVX,> 100 µM (inactive)
same,GI50,HCC 2998,> 100 µM (inactive)
same,GI50,HCT-116,> 100 µM (inactive)
same,GI50,HCT-15,> 100 µM
same,GI50,HL-60,> 100 µM (inactive)
same,GI50,HOP-62,> 100 µM (inactive)
same,GI50,HOP-92,> 100 µM (inactive)
same,GI50,HT-29,> 100 µM (inactive)
same,GI50,IGROV-1,> 100 µM (inactive)
same,GI50,K562,> 100 µM (inactive)
same,GI50,KM-20L2,> 100 µM (inactive)
same,GI50,KM12,> 100 µM (inactive)
same,GI50,LOX IMVI,> 100 µM (inactive)
same,GI50,LXFL 529,> 100 µM (inactive)
same,GI50,M19-MEL,> 100 µM (inactive)
same,GI50,MOLT-4,> 100 µM (inactive)
same,GI50,NCI-H226,> 100 µM (inactive)
same,GI50,NCI-H23,> 100 µM (inactive)
same,GI50,NCI-H460,> 100 µM (inactive)
same,GI50,NCI-H522,> 100 µM (inactive)
same,GI50,OVCAR-3,> 100 µM (inactive)
same,GI50,OVCAR-4,> 100 µM (inactive)
same,GI50,OVCAR-8,> 100 µM (inactive)
same,GI50,RPMI-8226,> 100 µM (inactive)
same,GI50,RXF 393,> 100 µM (inactive)
same,GI50,SF-268,> 100 µM (inactive)
same,GI50,SF-295,> 100 µM (inactive)
same,GI50,SF-539,> 100 µM (inactive)
same,GI50,SK-MEL-28,> 100 µM (inactive)
same,GI50,SK-MEL-2,> 100 µM (inactive)
same,GI50,SK-MEL-5,> 100 µM (inactive)
same,GI50,SK-OV-3,> 100 µM (inactive)
same,GI50,SN12C,> 100 µM (inactive)
same,GI50,SNB-19,> 100 µM (inactive)
same,GI50,SNB-75,> 100 µM (inactive)
same,GI50,SNB-78,> 100 µM (inactive)
same,GI50,SR,> 100 µM (inactive)
same,GI50,SW-620,> 100 µM (inactive)
same,GI50,TK-10,> 100 µM (inactive)
same,GI50,U-251,> 100 µM (inactive)
same,GI50,UACC-257,> 100 µM (inactive)
same,GI50,UACC-62,> 100 µM (inactive)
same,GI50,UO-31,> 100 µM (inactive)
COC(=O)C(=O)C(CC(=O)Nc1cccc(C(F)(F)F)c1)C(=O)OC (centres undefined),GI50,786-0,> 100 µM (inactive)
same,GI50,A498,> 100 µM (inactive)
same,GI50,A549,> 100 µM (inactive)
same,GI50,ACHN,> 100 µM (inactive)
same,GI50,CAKI-1,> 100 µM (inactive)
same,GI50,CCRF-CEM,> 100 µM (inactive)
same,GI50,COLO 205,> 100 µM (inactive)
same,GI50,DLD-1,> 100 µM (inactive)
same,GI50,DMS-114,> 100 µM (inactive)
same,GI50,EKVX,> 100 µM (inactive)
same,GI50,HCC 2998,> 100 µM (inactive)
same,GI50,HCT-116,> 100 µM (inactive)
same,GI50,HCT-15,> 100 µM
same,GI50,HL-60,> 100 µM (inactive)
same,GI50,HOP-62,> 100 µM (inactive)
same,GI50,HOP-92,> 100 µM (inactive)
same,GI50,IGROV-1,> 100 µM (inactive)
same,GI50,K562,> 100 µM (inactive)
same,GI50,KM-20L2,> 100 µM (inactive)
same,GI50,LOX IMVI,> 100 µM (inactive)
same,GI50,LXFL 529,> 100 µM (inactive)
same,GI50,M14,> 100 µM (inactive)
same,GI50,M19-MEL,> 100 µM (inactive)
same,GI50,MOLT-4,> 100 µM (inactive)
same,GI50,Malme-3M,> 100 µM (inactive)
same,GI50,NCI-H226,> 100 µM (inactive)
same,GI50,NCI-H23,> 100 µM (inactive)
same,GI50,NCI-H460,> 100 µM (inactive)
same,GI50,NCI-H522,> 100 µM (inactive)
same,GI50,OVCAR-4,> 100 µM (inactive)
same,GI50,OVCAR-5,> 100 µM (inactive)
same,GI50,OVCAR-8,> 100 µM (inactive)
same,GI50,RPMI-8226,> 100 µM (inactive)
same,GI50,RXF 393,> 100 µM (inactive)
same,GI50,SF-268,> 100 µM (inactive)
same,GI50,SF-539,> 100 µM (inactive)
same,GI50,SK-MEL-28,> 100 µM (inactive)
same,GI50,SK-MEL-2,> 100 µM (inactive)
same,GI50,SK-MEL-5,> 100 µM (inactive)
same,GI50,SK-OV-3,> 100 µM (inactive)
same,GI50,SN12C,> 100 µM (inactive)
same,GI50,SNB-19,> 100 µM (inactive)
same,GI50,SNB-75,> 100 µM (inactive)
same,GI50,SNB-78,> 100 µM (inactive)
same,GI50,SW-620,> 100 µM (inactive)
same,GI50,TK-10,> 100 µM (inactive)
same,GI50,U-251,> 100 µM (inactive)
same,GI50,UACC-62,> 100 µM (inactive)
same,GI50,UO-31,> 100 µM (inactive)
O=NN(CCCl)C(=O)Nc1ccc(Cl)c(Cl)c1,GI50,A498,> 83.8 µM (inactive)
same,GI50,A549,> 100 µM (inactive)
same,GI50,CAKI-1,81.1 µM (inactive)
same,GI50,CCRF-CEM,59.8 µM (inactive)
same,GI50,COLO 205,> 100 µM (inactive)
same,GI50,DLD-1,53.5 µM (inactive)
same,GI50,DMS-114,6.67 µM (inactive)
same,GI50,DMS-273,72.8 µM (inactive)
same,GI50,EKVX,46.9 µM (inactive)
same,GI50,HCC 2998,> 60.7 µM (inactive)
same,GI50,HCT-116,> 100 µM (inactive)
same,GI50,HCT-15,> 71.6 µM
same,GI50,HL-60,> 100 µM (inactive)
same,GI50,HOP-62,0.546 µM (active)
same,GI50,HOP-92,> 77.8 µM (inactive)
same,GI50,HT-29,76.6 µM (inactive)
same,GI50,IGROV-1,> 56.5 µM (inactive)
same,GI50,K562,36.9 µM (inactive)
same,GI50,KM-20L2,25.3 µM (inactive)
same,GI50,KM12,> 77.3 µM (inactive)
same,GI50,LOX IMVI,78.5 µM (inactive)
same,GI50,M19-MEL,69.5 µM (inactive)
same,GI50,MCF7,38.5 µM (inactive)
same,GI50,MOLT-4,> 100 µM (inactive)
same,GI50,Malme-3M,> 100 µM (inactive)
same,GI50,NCI-H226,46.6 µM (inactive)
same,GI50,NCI-H23,> 69.7 µM (inactive)
same,GI50,NCI-H460,56.8 µM (inactive)
same,GI50,NCI-H522,28.3 µM (inactive)
same,GI50,NCI/ADR-RES,48.4 µM (inactive)
same,GI50,OVCAR-3,41.9 µM (inactive)
same,GI50,OVCAR-4,61.1 µM (inactive)
same,GI50,OVCAR-5,> 67.9 µM (inactive)
same,GI50,OVCAR-8,71.6 µM (inactive)
same,GI50,RPMI-8226,50 µM (inactive)
same,GI50,RXF 393,> 100 µM (inactive)
same,GI50,SF-268,31.6 µM (inactive)
same,GI50,SF-295,48.5 µM (inactive)
same,GI50,SF-539,> 91.2 µM (inactive)
same,GI50,SK-MEL-28,> 100 µM (inactive)
same,GI50,SK-MEL-2,> 82.2 µM (inactive)
same,GI50,SK-MEL-5,71.6 µM (inactive)
same,GI50,SK-OV-3,> 94.8 µM (inactive)
same,GI50,SN12C,> 100 µM (inactive)
same,GI50,SNB-19,> 63 µM (inactive)
same,GI50,SNB-75,> 100 µM (inactive)
same,GI50,SNB-78,> 56.9 µM (inactive)
same,GI50,SW-620,> 100 µM (inactive)
same,GI50,U-251,52 µM (inactive)
same,GI50,UACC-257,> 100 µM (inactive)
same,GI50,UACC-62,45.9 µM (inactive)
same,GI50,UO-31,45.7 µM (inactive)
same,GI50,XF498,72.8 µM (inactive)

# From ChEMBL document CHEMBL1201862, “PubChem BioAssay data set” (2004)
